Data taken from patent US12103920B2, “Cereblon binding compounds, compositions thereof, and methods of treatment therewith” (Celgene Corporation, priority 2020, dated 2024).
Structures can show the parent of a compound that is named as a salt.

Biological target: T1, AR protein in VCaP cells (Homo sapiens, UniProt P10275)
T1 construct: endogenous in cells; host or cells: VCaP cells
T1 sequence (P10275 1-920): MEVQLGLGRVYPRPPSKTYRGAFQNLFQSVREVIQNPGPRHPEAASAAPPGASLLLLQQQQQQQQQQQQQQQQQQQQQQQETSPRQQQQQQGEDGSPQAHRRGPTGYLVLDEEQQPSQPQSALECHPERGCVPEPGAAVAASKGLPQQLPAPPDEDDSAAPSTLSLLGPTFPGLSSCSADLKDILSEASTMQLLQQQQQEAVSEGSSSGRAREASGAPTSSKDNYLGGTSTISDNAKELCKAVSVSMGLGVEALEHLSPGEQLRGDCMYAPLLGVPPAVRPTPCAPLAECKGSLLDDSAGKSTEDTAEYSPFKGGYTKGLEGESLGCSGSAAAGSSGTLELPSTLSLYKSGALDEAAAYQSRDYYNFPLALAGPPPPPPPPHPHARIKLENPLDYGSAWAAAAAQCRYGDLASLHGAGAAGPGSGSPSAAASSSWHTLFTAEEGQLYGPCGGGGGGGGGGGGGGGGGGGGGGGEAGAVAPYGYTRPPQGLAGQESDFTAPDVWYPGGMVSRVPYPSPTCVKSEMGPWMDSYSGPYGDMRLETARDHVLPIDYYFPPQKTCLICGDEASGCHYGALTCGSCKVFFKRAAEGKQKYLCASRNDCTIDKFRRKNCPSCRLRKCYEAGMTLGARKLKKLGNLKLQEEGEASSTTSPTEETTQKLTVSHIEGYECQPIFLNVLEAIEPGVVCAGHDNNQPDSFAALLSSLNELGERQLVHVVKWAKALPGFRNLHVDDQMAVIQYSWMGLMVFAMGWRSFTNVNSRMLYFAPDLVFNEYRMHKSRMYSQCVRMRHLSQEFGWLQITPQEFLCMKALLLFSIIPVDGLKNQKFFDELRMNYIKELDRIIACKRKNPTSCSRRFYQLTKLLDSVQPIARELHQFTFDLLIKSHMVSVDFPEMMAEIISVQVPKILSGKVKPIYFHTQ
Assay: VCAP AR Degradation Assay
Type: cell-based
Details: 24 h, AR ELISA; for DC50: concentration at 50% of DMSO control (50% AR degradation); for Y: lowest measured AR level normalized to DMSO control
Experimental: VCAP AR Degradation Assay. Test compounds were pre-dispensed into a Corning CellBind 96-well clear bottom plate (Cat #3300) using an acoustic dispenser to make a 10-point concentration series at 1:3 dilution for each compound. The final top concentration of each compound was 5 μM. DMSO at a final concentration of 0.1% was used as a control. VCaP cells cultured in DMEM with 8% fetal bovine serum (FBS) were seeded at 50K cells per well in a 200 μL volume into the compound plate and incubated at 37° C. in a CO2 incubator for 24 h. The medium was carefully removed from the cells and the plate was placed on ice. One hundred μL of ice-cold 1× cell lysis buffer from Cell Signaling Technologies (Cat #9803) was added to each well of the cells and the plate was incubated at 4° C. on a shaker for 1 h. Fifteen μL of cell lysate was used for AR ELISA detection using a PathScan Total Sandwich AR ELISA kit (Cell Signaling Technology, Cat #12580). AR levels in compound-treated wells were normalized to that of DMSO control and expressed as percent of control (PoC) (y). A Four Parameter Logistic Model (Sigmoidal Dose-Response Model) was used to determine the compound's DC50, and EC50, using the following equation: y=(A+((B−A)/(1+((C/x)^D)))) • A=YMin (lowest AR level normalized to DMSO control in response to compound treatment, as determined by curve fit) • B=YMax (maximum AR level as determined by curve fit) • C=EC50 • D=Hill Slope • x=compound concentration • EC50=the concentration of compound when y=(YMax−YMin)/2 • DC50=the concentration of the compound when y=50% of DMSO control (50% AR degradation) • y=AR protein level normalized to DMSO control
The lowest measured AR level normalized to DMSO control in response to compound treatment, termed Y value, was used to characterize the compound-mediated AR degradation efficiency.

Row | SMILES | DC50 | Y
1 | CC1(C)C(=O)N(c2cnc(C#N)c(C(F)(F)F)c2)C(=S)N1[C@H]1CC[C@H](OCCN2CCN(CC(=O)Nc3cc(Cl)cc(NC4CCC(=O)NC4=O)c3)[C@@H](C(F)(F)F)C2)CC1 (stereo partly drawn) [Cmpd 26, N-(3-Chloro-5-((2,6-dioxopiperidin-3-yl)amino)phenyl)-2-((R)-4-(2-(((trans)-4-(3-(6-cyano-5-(trifluoromethyl)pyridin-3-yl)-5,5-dimethyl-4-oxo-2-thioxoimidazolidin-1-yl)cyclohexyl)oxy)ethyl)-2-(trifluoromethyl)piperazin-1-yl)acetamide] | 5 to 10 nM | * (0<Y≤15%)
2 | CC1(C)C(=O)N(c2cnc(C#N)c(C(F)(F)F)c2)C(=S)N1[C@H]1CC[C@H](OCCN2CCN(CC(=O)Nc3cccc(N[C@@H]4CCC(=O)NC4=O)c3)[C@@H](C(F)(F)F)C2)CC1 [Cmpd 42, 2-((R)-4-(2-(((trans)-4-(3-(6-Cyano-5-(trifluoromethyl)pyridin-3-yl)-5,5-dimethyl-4-oxo-2-thioxoimidazolidin-1-yl)cyclohexyl)oxy)ethyl)-2-(trifluoromethyl)piperazin-1-yl)-N-(3-(((R)-2,6-dioxopiperidin-3-yl)amino)phenyl)acetamide hydrochloride] | ≤ 5 nM | * (0<Y≤15%)
3 | C[C@@H]1CN(CCO[C@H]2CC[C@H](N3C(=S)N(c4ccc(C#N)c(C(F)(F)F)c4)C(=O)C3(C)C)CC2)C[C@H](C)N1CC(=O)Nc1cccc(NC2CCC(=O)NC2=O)c1 (stereo partly drawn) [Cmpd 1, 2-((2R,6S)-4-(2-((trans-4-(3-(4-Cyano-3-(trifluoromethyl)phenyl)-5,5-dimethyl-4-oxo-2-thioxoimidazolidin-1-yl)cyclohexyl)oxy)ethyl)-2,6-dimethylpiperazin-1-yl)-N-(3-((2,6-dioxopiperidin-3-yl)amino)phenyl)acetamide] | 5 to 10 nM | *** (25%<Y<50%)
4 | C[C@@H]1CN(CCO[C@H]2CC[C@H](N3C(=S)N(c4ccc(C#N)c(C(F)(F)F)c4)C(=O)C3(C)C)CC2)C[C@H](C)N1CC(=O)Nc1cccc(N[C@@H]2CCC(=O)NC2=O)c1 [Cmpd 3, 2-((2R,6S)-4-(2-((trans-4-(3-(4-Cyano-3-(trifluoromethyl)phenyl)-5,5-dimethyl-4-oxo-2-thioxoimidazolidin-1-yl)cyclohexyl)oxy)ethyl)-2,6-dimethylpiperazin-1-yl)-N-(3-(((R)-2,6-dioxopiperidin-3-yl)amino)phenyl)acetamide hydrochloride] | 5 to 10 nM | *** (25%<Y<50%)
5 | CC1(C)C(=O)N(c2cnc(C#N)c(C(F)(F)F)c2)C(=S)N1[C@H]1CC[C@H](OCCN2CCN(CC(=O)Nc3cccc(N[C@H]4CCC(=O)NC4=O)c3)[C@@H](C(F)(F)F)C2)CC1 [Cmpd 41, 2-((R)-4-(2-(((trans)-4-(3-(6-Cyano-5-(trifluoromethyl)pyridin-3-yl)-5,5-dimethyl-4-oxo-2-thioxoimidazolidin-1-yl)cyclohexyl)oxy)ethyl)-2-(trifluoromethyl)piperazin-1-yl)-N-(3-(((S)-2,6-dioxopiperidin-3-yl)amino)phenyl)acetamide hydrochloride] | ≤ 5 nM | * (0<Y≤15%)
6 | C[C@@H]1C[C@H](OCCO[C@H]2CC[C@H](N3C(=S)N(c4ccc(C#N)c(C(F)(F)F)c4)C(=O)C3(C)C)CC2)C[C@H](C)N1CC(=O)Nc1cccc(NC2CCC(=O)NC2=O)c1 (stereo partly drawn) [Cmpd 43, 2-((2R,4r,6S)-4-(2-(((trans)-4-(3-(4-Cyano-3-(trifluoromethyl)phenyl)-5,5-dimethyl-4-oxo-2-thioxoimidazolidin-1-yl)cyclohexyl)oxy)ethoxy)-2,6-dimethylpiperidin-1-yl)-N-(3-((2,6-dioxopiperidin-3-yl)amino)phenyl)acetamide] | 5 to 10 nM | *** (25%<Y<50%)
7 | C[C@@H]1CN(CCO[C@H]2CC[C@H](N3C(=S)N(c4cnc(C#N)c(C(F)(F)F)c4)C(=O)C3(C)C)CC2)C[C@H](C)N1CC(=O)Nc1cccc(N[C@H]2CCC(=O)NC2=O)c1 [Cmpd 47, 2-((2R,6S)-4-(2-(((trans)-4-(3-(6-Cyano-5-(trifluoromethyl)pyridin-3-yl)-5,5-dimethyl-4-oxo-2-thioxoimidazolidin-1-yl)cyclohexyl)oxy)ethyl)-2,6-dimethylpiperazin-1-yl)-N-(3-(((S)-2,6-dioxopiperidin-3-yl)amino)phenyl)acetamide] | < 1000 nM | * (0<Y≤15%)
8 | CC1(C)C(=O)N(c2ccc(C#N)c(C(F)(F)F)c2)C(=S)N1[C@H]1CC[C@H](OCCCN2CCN(CC(=O)Nc3cccc(NC4CCC(=O)NC4=O)c3)[C@@H](C(F)(F)F)C2)CC1 (stereo partly drawn) [Cmpd 30, 2-((R)-4-(3-(((trans)-4-(3-(4-Cyano-3-(trifluoromethyl)phenyl)-5,5-dimethyl-4-oxo-2-thioxoimidazolidin-1-yl)cyclohexyl)oxy)propyl)-2-(trifluoromethyl)piperazin-1-yl)-N-(3-((2,6-dioxopiperidin-3-yl)amino)phenyl)acetamide] | 5 to 10 nM | * (0<Y≤15%)
9 | CC1(C)C(=O)N(c2cnc(C#N)c(C(F)(F)F)c2)C(=S)N1[C@H]1CC[C@H](OCCN2CCN(CC(=O)Nc3cccc(NC4CCC(=O)NC4=O)c3)[C@@H](C(F)(F)F)C2)CC1 (stereo partly drawn) [Cmpd 20, 2-((R)-4-(2-((trans-4-(3-(6-Cyano-5-(trifluoromethyl)pyridin-3-yl)-5,5-dimethyl-4-oxo-2-thioxoimidazolidin-1-yl)cyclohexyl)oxy)ethyl)-2-(trifluoromethyl)piperazin-1-yl)-N-(3-((2,6-dioxopiperidin-3-yl)amino)phenyl)acetamide hydrochloride] | ≤ 5 nM | * (0<Y≤15%)
10 | C[C@@H]1C[C@H](OCC[C@H]2CC[C@H](N3C(=S)N(c4cnc(C#N)c(C(F)(F)F)c4)C(=O)C3(C)C)CC2)C[C@H](C)N1CC(=O)Nc1cccc(NC2CCC(=O)NC2=O)c1 (stereo partly drawn) [Cmpd 35, 2-((2R,4r,6S)-4-(2-((trans)-4-(3-(6-Cyano-5-(trifluoromethyl)pyridin-3-yl)-5,5-dimethyl-4-oxo-2-thioxoimidazolidin-1-yl)cyclohexyl)ethoxy)-2,6-dimethylpiperidin-1-yl)-N-(3-((2,6-dioxopiperidin-3-yl)amino)phenyl)acetamide hydrochloride] | 10 to 100 nM | * (0<Y≤15%)
11 | C[C@@H]1CN(CCCO[C@H]2CC[C@H](N3C(=S)N(c4ccc(C#N)c(Cl)c4)C(=O)C3(C)C)CC2)C[C@H](C)N1CC(=O)Nc1cccc(NC2CCC(=O)NC2=O)c1 (stereo partly drawn) [Cmpd 9, 2-((2R,6S)-4-(3-((trans-4-(3-(3-Chloro-4-cyanophenyl)-5,5-dimethyl-4-oxo-2-thioxoimidazolidin-1-yl)cyclohexyl)oxy)propyl)-2,6-dimethylpiperazin-1-yl)-N-(3-((2,6-dioxopiperidin-3-yl)amino)phenyl)acetamide hydrochloride] | ≤ 5 nM | *** (25%<Y<50%)
12 | CC1(C)C(=O)N(c2ccc(C#N)c(C(F)(F)F)c2)C(=S)N1[C@H]1CC[C@H](OCCN2CCN(CC(=O)Nc3cc(C#N)cc(NC4CCC(=O)NC4=O)c3)[C@@H](C(F)(F)F)C2)CC1 (stereo partly drawn) [Cmpd 34, 2-((R)-4-(2-(((trans)-4-(3-(4-Cyano-3-(trifluoromethyl)phenyl)-5,5-dimethyl-4-oxo-2-thioxoimidazolidin-1-yl)cyclohexyl)oxy)ethyl)-2-(trifluoromethyl)piperazin-1-yl)-N-(3-cyano-5-((2,6-dioxopiperidin-3-yl)amino)phenyl)acetamide] | 5 to 10 nM | *** (25%<Y<50%)
